Results published in ChEMBL document CHEMBL1201862, “PubChem BioAssay data set” (2004).
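Growth conditions: 96-well plates. Treatment: test compound, 48 hours, 5 concentrations. Analysis: linear interpolation between bracketing concentrations; unreached endpoints set to highest concentration. GI50: concentration for 50% inhibition of growth.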 Active and inactive are the calls of the source. No stated cut-off is given here; in the data, active = GI50 up to about 1.1 µM and inactive = higher.

What was measured:
Test in all cases: DTP human tumour cell line panel, 48 h
NCI-H226 = test system: NCI-H226
786-0 = test system: 786-0
OVCAR-3 = test system: OVCAR-3
COLO 205 = test system: COLO 205
SW-620 = test system: SW-620
RPMI-8226 = test system: RPMI-8226
HL-60 = test system: HL-60
SK-MEL-5 = test system: SK-MEL-5
TK-10 = test system: TK-10
HCC 2998 = test system: HCC 2998
NCI-H460 = test system: NCI-H460
Malme-3M = test system: Malme-3M
HOP-62 = test system: HOP-62
LOX IMVI = test system: LOX IMVI
CAKI-1 = test system: CAKI-1
HOP-92 = test system: HOP-92
ACHN = test system: ACHN
KM12 = test system: KM12
PC-3 = test system: PC-3
UO-31 = test system: UO-31

| SMILES | GI50 (NCI-H226) | GI50 (786-0) | GI50 (OVCAR-3) | GI50 (COLO 205) | GI50 (SW-620) | GI50 (RPMI-8226) | GI50 (HL-60) | GI50 (SK-MEL-5) | GI50 (TK-10) | GI50 (HCC 2998) | GI50 (NCI-H460) | GI50 (Malme-3M) | GI50 (HOP-62) | GI50 (LOX IMVI) | GI50 (CAKI-1) | GI50 (HOP-92) | GI50 (ACHN) | GI50 (KM12) | GI50 (PC-3) | GI50 (UO-31) |
| --- | --- | --- | --- | --- | --- | --- | --- | --- | --- | --- | --- | --- | --- | --- | --- | --- | --- | --- | --- | --- |
| Oc1cccc2cc(Br)cnc12 | 27.5 µM (inactive) | 31 µM (inactive) | 2.67 µM (inactive) | 29.2 µM (inactive) | 5.28 µM (inactive) | 3.49 µM (inactive) | 1.05 µM (active) | 6.5 µM (inactive) | 35.8 µM (inactive) | 27.9 µM (inactive) | 5.89 µM (inactive) | 7.96 µM (inactive) | 16.2 µM (inactive) | 4.1 µM (inactive) | 24.5 µM (inactive) | 16 µM (inactive) | 6.03 µM (inactive) | 7.5 µM (inactive) | 6.68 µM (inactive) | 6.98 µM (inactive) |
| COc1cc(/C=C2/CCS(=O)(=O)c3ccc(C)cc3C2=O)cc(OC)c1OC | 6.34 µM (inactive) | 3.3 µM (inactive) | 5.5 µM (inactive) | 4.85 µM (inactive) | 4.76 µM (inactive) | 2.65 µM (inactive) | 1.41 µM (inactive) | 2.53 µM (inactive) | 5.37 µM (inactive) | 4.34 µM (inactive) | 3.23 µM (inactive) | 3.63 µM (inactive) | 6.04 µM (inactive) | 2.61 µM (inactive) | 4.65 µM (inactive) | 4.18 µM (inactive) | 3.66 µM (inactive) | 4.54 µM (inactive) | 6.73 µM (inactive) | 5.75 µM (inactive) |
| Clc1ccc(-c2cc3nc4ccccc4nc3o2)cc1 | > 100 µM (inactive) | 37.1 µM (inactive) | > 100 µM (inactive) | > 100 µM (inactive) | > 100 µM (inactive) | > 100 µM (inactive) | > 100 µM (inactive) | > 100 µM (inactive) | 32.7 µM (inactive) | > 100 µM (inactive) | > 100 µM (inactive) | > 100 µM (inactive) | – | > 100 µM (inactive) | > 100 µM (inactive) | 47.2 µM (inactive) | 25.4 µM (inactive) | > 100 µM (inactive) | > 100 µM (inactive) | > 100 µM (inactive) |
| C(=C/c1nnnn1-c1ccccc1)/Nc1ccccc1 | 19.1 µM (inactive) | 39.2 µM (inactive) | 27.2 µM (inactive) | 33.7 µM (inactive) | 37.3 µM (inactive) | 31 µM (inactive) | 41.2 µM (inactive) | 14.5 µM (inactive) | 34.4 µM (inactive) | 21.7 µM (inactive) | 49.8 µM (inactive) | 31.4 µM (inactive) | 25.4 µM (inactive) | 28.1 µM (inactive) | 43 µM (inactive) | 24.4 µM (inactive) | 28.1 µM (inactive) | 31.6 µM (inactive) | 27.2 µM (inactive) | 20.6 µM (inactive) |
| CC(C)(C)C1=CC(O)(c2c3ccccc3c(C3(O)C=C(C(C)(C)C)C(=O)C(C(C)(C)C)=C3)c3ccccc23)C=C(C(C)(C)C)C1=O | > 100 µM (inactive) | > 100 µM (inactive) | > 100 µM (inactive) | > 100 µM (inactive) | > 100 µM (inactive) | 58.3 µM (inactive) | > 10 µM (inactive) | > 100 µM (inactive) | > 100 µM (inactive) | – | – | > 100 µM (inactive) | > 100 µM (inactive) | > 100 µM (inactive) | > 100 µM (inactive) | < 0.01 µM (active) | > 100 µM (inactive) | > 100 µM (inactive) | > 100 µM (inactive) | > 100 µM (inactive) |
| c1cnc(N2CCN(Cc3c[nH]c4ccccc34)CC2)nc1 | 58.7 µM (inactive) | 14.3 µM (inactive) | 52.2 µM (inactive) | 25.4 µM (inactive) | > 100 µM (inactive) | 11.7 µM (inactive) | 51.6 µM (inactive) | 36.2 µM (inactive) | 22.9 µM (inactive) | 18.6 µM (inactive) | 31.3 µM (inactive) | 43.4 µM (inactive) | 56.1 µM (inactive) | 45.8 µM (inactive) | 28.2 µM (inactive) | > 100 µM (inactive) | 27.8 µM (inactive) | 20.4 µM (inactive) | 23.5 µM (inactive) | 38.5 µM (inactive) |
| O=C1CSC2=NC3=C(CSC/C3=C\c3ccccc3)C(c3ccccc3)N12 (stereo unspecified) | > 100 µM (inactive) | > 100 µM (inactive) | 88.9 µM (inactive) | > 100 µM (inactive) | 84.9 µM (inactive) | 31.1 µM (inactive) | 32.2 µM (inactive) | 52.1 µM (inactive) | > 100 µM (inactive) | > 100 µM (inactive) | 81.3 µM (inactive) | > 100 µM (inactive) | > 100 µM (inactive) | 44.5 µM (inactive) | – | 46 µM (inactive) | 57.5 µM (inactive) | 70.3 µM (inactive) | 28.1 µM (inactive) | 24.9 µM (inactive) |
| COc1cc2c3c(c1O)C1(C=CC(=O)C=C1)CC3N(C)CC2 (stereo unspecified) [GLAZIOVINE] | 22 µM (inactive) | 3.17 µM (inactive) | 5.37 µM (inactive) | 5.4 µM (inactive) | 5.89 µM (inactive) | 14.8 µM (inactive) | 2.79 µM (inactive) | 14 µM (inactive) | 21.6 µM (inactive) | 12.4 µM (inactive) | 4.11 µM (inactive) | 11.3 µM (inactive) | 13.1 µM (inactive) | 2.77 µM (inactive) | 7.29 µM (inactive) | 11.6 µM (inactive) | 14.5 µM (inactive) | 4.48 µM (inactive) | 14.3 µM (inactive) | – |
| C[N+](C)(C)CC(=O)N/N=C(/CC(=O)CC(C1=C(O)c2ccccc2OC1)c1ccccc1)C(=O)Nc1cccc(Cl)c1 (stereo unspecified) | > 100 µM (inactive) | > 100 µM (inactive) | > 100 µM (inactive) | > 100 µM (inactive) | > 100 µM (inactive) | > 100 µM (inactive) | > 100 µM (inactive) | > 100 µM (inactive) | > 100 µM (inactive) | > 100 µM (inactive) | > 10 µM (inactive) | – | > 100 µM (inactive) | > 100 µM (inactive) | > 100 µM (inactive) | > 100 µM (inactive) | > 100 µM (inactive) | > 100 µM (inactive) | > 100 µM (inactive) | > 100 µM (inactive) |
| N#Cc1nc(CCc2nc(C#N)c(N)o2)oc1N | > 10 µM (inactive) | > 10 µM (inactive) | – | > 10 µM (inactive) | > 10 µM (inactive) | > 10 µM (inactive) | > 10 µM (inactive) | > 10 µM (inactive) | > 10 µM (inactive) | > 10 µM (inactive) | > 10 µM (inactive) | > 10 µM (inactive) | > 10 µM (inactive) | > 10 µM (inactive) | > 10 µM (inactive) | > 10 µM (inactive) | > 10 µM (inactive) | > 10 µM (inactive) | > 10 µM (inactive) | > 10 µM (inactive) |
| COc1ccc2c(c1)CN1C(=N2)CSC1c1ccccc1Cl (stereo unspecified) | 12.6 µM (inactive) | 17.9 µM (inactive) | – | 12.8 µM (inactive) | 17.4 µM (inactive) | 12.1 µM (inactive) | 6.55 µM (inactive) | 14.4 µM (inactive) | 23.7 µM (inactive) | 14.4 µM (inactive) | 14.3 µM (inactive) | 19.1 µM (inactive) | 31.6 µM (inactive) | 15 µM (inactive) | 29.1 µM (inactive) | 11.3 µM (inactive) | 17.6 µM (inactive) | 18 µM (inactive) | 16.3 µM (inactive) | 11.5 µM (inactive) |
| CC1(C)CC(C)(C)C1=NNC(N)=O | > 100 µM (inactive) | > 100 µM (inactive) | > 100 µM (inactive) | > 100 µM (inactive) | > 100 µM (inactive) | – | > 100 µM (inactive) | > 100 µM (inactive) | > 100 µM (inactive) | > 100 µM (inactive) | > 100 µM (inactive) | > 100 µM (inactive) | > 100 µM (inactive) | > 100 µM (inactive) | > 100 µM (inactive) | > 100 µM (inactive) | > 100 µM (inactive) | > 100 µM (inactive) | > 100 µM (inactive) | > 100 µM (inactive) |
| COC1=C2C=[N+](C)C3C(=C2C=CC1OC)Cc1cc2c(cc13)OCO2 (stereo unspecified) | 15.4 µM (inactive) | 11.9 µM (inactive) | 3.75 µM (inactive) | 5.26 µM (inactive) | 26.2 µM (inactive) | 2.53 µM (inactive) | 4.61 µM (inactive) | 11.2 µM (inactive) | 15.5 µM (inactive) | – | – | 3.88 µM (inactive) | 13.9 µM (inactive) | 16.3 µM (inactive) | 15.8 µM (inactive) | 22.7 µM (inactive) | – | 2.8 µM (inactive) | 16.5 µM (inactive) | 13.7 µM (inactive) |
| CC(O)CNC(=O)Nc1c(C(F)(F)F)cc(-c2ccccc2)[nH]c1=O (stereo unspecified) | > 100 µM (inactive) | > 100 µM (inactive) | > 100 µM (inactive) | > 100 µM (inactive) | > 100 µM (inactive) | – | 0.343 µM (active) | > 100 µM (inactive) | > 100 µM (inactive) | > 100 µM (inactive) | > 100 µM (inactive) | > 100 µM (inactive) | > 100 µM (inactive) | > 100 µM (inactive) | > 100 µM (inactive) | > 100 µM (inactive) | > 100 µM (inactive) | > 100 µM (inactive) | > 100 µM (inactive) | > 100 µM (inactive) |
| OC1(c2ccccc2)CSc2ncnn21 (stereo unspecified) | > 100 µM (inactive) | > 100 µM (inactive) | > 100 µM (inactive) | > 100 µM (inactive) | > 100 µM (inactive) | – | > 100 µM (inactive) | > 100 µM (inactive) | > 100 µM (inactive) | > 100 µM (inactive) | > 100 µM (inactive) | > 100 µM (inactive) | > 100 µM (inactive) | > 100 µM (inactive) | > 100 µM (inactive) | > 100 µM (inactive) | > 100 µM (inactive) | > 100 µM (inactive) | > 100 µM (inactive) | > 100 µM (inactive) |
